Values of other authors in PMC7060171, “Evaluation of Radiation dosimetry of ^99mTc-HYNIC-PSMA and imaging in prostate cancer” (Scientific Reports, 2020).
Where two headings read alike, the source gives them in different places.

[1] = conventional 99mTc-labelled radiopharmaceuticals used in SPECT/CT scans

With `O=P(O)(O)CP(=O)(O)O` (99mTc complex, metal not drawn) [MDP] as the compound, how does the Effective dose [1] read?
Its Effective dose is 5.68E-03 mSv/MBq.

Which Effective dose [1] does the source give for `[C-]#[N+]CC(C)(C)OC.[C-]#[N+]CC(C)(C)OC.[C-]#[N+]CC(C)(C)OC.[C-]#[N+]CC(C)(C)OC.[C-]#[N+]CC(C)(C)OC.[C-]#[N+]CC(C)(C)OC.[Tc]` [MIBI] here?
The Effective dose was 7.83E-03 mSv/MBq.

Which Effective dose does the source give for `O=C(O)CC[C@H](NC(=O)N[C@@H](CCCCNC(=O)c1ccc([18F])nc1)C(=O)O)C(=O)O` [^18F-DCFPyL] here?
The Effective dose was 1.39E-02 mSv/MBq.

For `O=C(O)CC[C@H](NC(=O)N[C@@H](CCCCNC(=O)[C@H](Cc1ccc2ccccc2c1)NC(=O)c1ccc(CNC(=O)[C@H](CCC(=O)O)NC(=O)[C@H](CCC(=O)O)NC(=O)c2ccc([18F])nc2)cc1)C(=O)O)C(=O)O` [^18F-PSMA-1007], which Effective dose is on record?
Its Effective dose is 2.2E-02 mSv/MBq.

For `O=C([O-])CN(CCN(CC(=O)[O-])Cc1cc(CCC(=O)NCCCCCC(=O)NCCCC[C@H](NC(=O)N[C@@H](CCC(=O)O)C(=O)O)C(=O)O)ccc1[O-])Cc1cc(CCC(=O)O)ccc1[O-].[68Ga+3].[OH3+]` [^68Ga-PSMA-11], which Effective dose is on record?
Its Effective dose is 2.36E-02 mSv/MBq.

Which Effective dose does the source give for `O=C(O)CC[C@H](NC(=O)N[C@@H](CCC(=O)N[C@@H](CCCCN(Cc1nccn1CC(=O)N(CC(=O)O)CC(=O)O)Cc1nccn1CC(=O)N(CC(=O)O)CC(=O)O)C(=O)O)C(=O)O)C(=O)O.[99Tc+4].[CH-]=O.[CH-]=O.[CH-]=O.[Cl-]` [^99mTc-MIP-1404] here?
The Effective dose was 8.8E-03 mSv/MBq.
